The record followed here is ChEMBL document CHEMBL1125480, “Studies on antidiabetic agents. 11. Novel thiazolidinedione derivatives as potent hypoglycemic and hypolipidemic agents” (1992).

What all share (type): functional
The species named for assay [1] is Mus musculus. Put plainly: (§1) Effective dose to reduce 25% of glucose levels in blood. The note with it: Mus musculus, Blood.
The species entered for assay [2] is Mus musculus. Put plainly: Effective dose to reduce 25% of triglyceride levels in plasma.
Assay [3] is filed under the species Mus musculus. Put plainly: Maximum reduction in blood glucose levels in KKA mice at a dosage of 0.001% in diet.
For assay [4], the species on record is Mus musculus. Put plainly: Maximum reduction in blood glucose levels in KKA mice at a dosage of 0.005% in diet.
The species entered for assay [5] is Mus musculus. Put plainly: Maximum reduction in plasma triglyceride levels in KKA mice at a dosage of 0.001% in diet.
The species entered for assay [6] is Mus musculus. Put plainly: Maximum reduction in plasma triglyceride levels in KKA mice at a dosage of 0.005% in diet.
The species named for assay [7] is Mus musculus. Put plainly: Compound was tested for maximum reduction in plasma triglyceride levels in KKA mice at a dosage of 0.005% in diet.
The species entered for assay [8] is Mus musculus. Put plainly: Compound was tested for maximum reduction in blood glucose levels in KKA mice at a dosage of 0.01% in diet.
The species named for assay [9] is Mus musculus. Put plainly: Compound was tested for maximum reduction in blood glucose levels in KKA mice at a dosage of 0.05% in diet.
For assay [10], the species on record is Mus musculus. Put plainly: Compound was tested for maximum reduction in plasma triglyceride levels in KKA mice at a dosage of 0.01% in diet.
For assay [11], the species on record is Mus musculus. Put plainly: Compound was tested for maximum reduction in plasma triglyceride levels in KKA mice at a dosage of 0.05% in diet.
Assay [12] is described as follows: as §1. The note with it: Mus musculus.

With `Cc1oc(-c2cccs2)nc1CCOc1ccc(CC2SC(=O)NC2=O)cc1` (centres undefined), the ED25 came to 0.09 mg/kg/day in the assay filed under Mus musculus [1] and 0.3 mg/kg/day in the assay listed under Mus musculus [2]. Moreover, the Reduction in the assay listed under Mus musculus [3] was determined as 50%; in the assay filed under Mus musculus [4], 51%; in the assay listed under Mus musculus [5], 41%; in the assay listed under Mus musculus [6], 72%.

With `Cc1oc(-c2ccccc2)nc1COc1ccc(CC2SC(=O)NC2=O)cc1` (centres undefined), the ED25 turned out to be 3 mg/kg/day in the assay filed under Mus musculus [1] and 5 mg/kg/day in the assay listed under Mus musculus [2]. Besides, the Reduction was 23% in the assay listed under Mus musculus [3], 21% in the assay listed under Mus musculus [4], 17% in the assay filed under Mus musculus [5] and 44% in the assay listed under Mus musculus [6].

Consider `O=C1NC(=O)/C(=C/c2ccc(OCCc3csc(-c4ccccc4)n3)cc2)S1`, for which the ED25 in the assay filed under Mus musculus [1] worked out at 0.6 mg/kg/day; in the assay filed under Mus musculus [2] it was 1.3 mg/kg/day. The Reduction amounted to 49% in the assay filed under Mus musculus [3], 57% in the assay filed under Mus musculus [4], 44% in the assay listed under Mus musculus [5] and 57% in the assay filed under Mus musculus [6].

Consider `Cc1nc(CCOc2ccc(CC3SC(=O)NC3=O)cc2)cs1` (centres undefined), for which the ED25 in the assay listed under Mus musculus [1] and in the assay filed under Mus musculus [2] was 4 mg/kg/day throughout. Besides, the Reduction in the assay listed under Mus musculus [3] is recorded as 17%; in the assay listed under Mus musculus [4], 42%; in the assay filed under Mus musculus [5], 15%; in the assay listed under Mus musculus [6], 52%.

`Cc1oc(-c2ccccc2)nc1C(O)COc1ccc(/C=C2\SC(=O)NC2=O)cc1` (centres undefined): the results for the ED25 in the assay listed under Mus musculus [1] and in the assay filed under Mus musculus [2] were 0.9 mg/kg/day and 0.3 mg/kg/day, respectively. Further, the Reduction was found to be 36% in the assay listed under Mus musculus [3], 56% in the assay listed under Mus musculus [4], 54% in the assay filed under Mus musculus [5] and 60% in the assay listed under Mus musculus [6].

As to `O=C1NC(=O)C(Cc2ccc(OCc3csc(-c4ccccc4)n3)cc2)S1` (centres undefined), the ED25 stood at 6 mg/kg/day in the assay listed under Mus musculus [1] and 8 mg/kg/day in the assay filed under Mus musculus [2]. Besides, the Reduction in the assay filed under Mus musculus [3] came to 11%; in the assay listed under Mus musculus [4], 28%; in the assay listed under Mus musculus [5] it was 3%; in the assay listed under Mus musculus [7], 32%.

For the compound `Cc1oc(C2CCCCC2)nc1CCOc1ccc(CC2SC(=O)NC2=O)cc1` (centres undefined), the ED25 in the assay listed under Mus musculus [1] amounted to 0.2 mg/kg/day; in the assay filed under Mus musculus [2], 0.6 mg/kg/day. Besides, the Reduction in the assay listed under Mus musculus [3] turned out to be 51%; in the assay filed under Mus musculus [4] it was 52%; in the assay filed under Mus musculus [5], 58%; in the assay filed under Mus musculus [6] it was 71%.

Take `CCc1oc(-c2ccccc2)nc1CCOc1ccc(CC2SC(=O)NC2=O)cc1` (centres undefined): the ED25 was 0.3 mg/kg/day in the assay filed under Mus musculus [1] and 0.6 mg/kg/day in the assay listed under Mus musculus [2]. The Reduction in the assay listed under Mus musculus [3] stood at 49%; in the assay listed under Mus musculus [4], 55%; in the assay listed under Mus musculus [5], 55%; in the assay filed under Mus musculus [6] it was 79%.

In the case of `Cc1oc(-c2ccccc2)nc1CCOc1ccc(CC2SC(=O)NC2=O)cc1` (centres undefined), the figures for the ED25 in the assay listed under Mus musculus [1] and in the assay listed under Mus musculus [2] were 0.05 mg/kg/day and 0.09 mg/kg/day, respectively. For the same compound, the Reduction in the assay listed under Mus musculus [3] is 55%; in the assay filed under Mus musculus [4], 59%; in the assay filed under Mus musculus [5] it was 67%; in the assay filed under Mus musculus [6] it was 66%.

`Cc1nc(C(O)COc2ccc(CC3SC(=O)NC3=O)cc2)c(C)o1` (centres undefined): the ED25 is 0.2 mg/kg/day in the assay filed under Mus musculus [1] and 0.5 mg/kg/day in the assay listed under Mus musculus [2]. In addition, the Reduction in the assay filed under Mus musculus [3] is given as 55%; in the assay filed under Mus musculus [4], 51%; in the assay listed under Mus musculus [5], 52%; in the assay filed under Mus musculus [6] it was 62%.

On to `O=C1NC(=O)C(Cc2ccc(OCCc3coc(-c4ccccc4)n3)cc2)S1` (centres undefined), for which the values for the ED25 in the assay listed under Mus musculus [1] and in the assay filed under Mus musculus [2] were 0.3 mg/kg/day and 0.5 mg/kg/day, respectively. For the same compound, the Reduction amounted to 41% in the assay listed under Mus musculus [8], 58% in the assay filed under Mus musculus [9], 51% in the assay filed under Mus musculus [10] and 68% in the assay listed under Mus musculus [11].

Regarding `CCCc1nc(CCOc2ccc(CC3SC(=O)NC3=O)cc2)co1` (centres undefined), the ED25 in the assay listed under Mus musculus [1] and in the assay listed under Mus musculus [2] was 2 mg/kg/day throughout. Besides, the Reduction in the assay listed under Mus musculus [3] was found to be 29%; in the assay filed under Mus musculus [4] it was 52%; in the assay filed under Mus musculus [5], 26%; in the assay listed under Mus musculus [6], 65%.

For the compound `Cc1oc(-c2ccccc2)nc1C(O)COc1ccc(CC2SC(=O)NC2=O)cc1` (centres undefined), the ED25 was found to be 0.05 mg/kg/day in the assay listed under Mus musculus [1] and 0.1 mg/kg/day in the assay listed under Mus musculus [2]. Moreover, the Reduction stood at 54% in the assay listed under Mus musculus [3], 58% in the assay listed under Mus musculus [4], 62% in the assay filed under Mus musculus [5] and 81% in the assay filed under Mus musculus [6].

In the case of `O=C1NC(=O)C(Cc2ccc(OCCc3csc(-c4ccccc4)n3)cc2)S1` (centres undefined), the ED25 in the assay listed under Mus musculus [1] was determined as 0.5 mg/kg/day; in the assay filed under Mus musculus [2], 0.3 mg/kg/day. In addition, the Reduction turned out to be 39% in the assay filed under Mus musculus [3], 52% in the assay filed under Mus musculus [4], 54% in the assay listed under Mus musculus [5] and 63% in the assay filed under Mus musculus [6].

With `COc1ccc(-c2nc(CCOc3ccc(CC4SC(=O)NC4=O)cc3)c(C)o2)cc1` (centres undefined), the figures for the ED25 in the assay filed under Mus musculus [1] and in the assay filed under Mus musculus [2] were 0.3 mg/kg/day and 0.6 mg/kg/day, respectively. Also, the Reduction stood at 53% in the assay filed under Mus musculus [3], 55% in the assay listed under Mus musculus [4], 63% in the assay filed under Mus musculus [5] and 72% in the assay listed under Mus musculus [6].

On to `Cc1nc(C(O)COc2ccc(/C=C3\SC(=O)NC3=O)cc2)c(C)o1` (centres undefined), for which the results for the ED25 in the assay filed under Mus musculus [1] and in the assay listed under Mus musculus [2] were 2.2 mg/kg/day and 0.8 mg/kg/day, respectively. Also, the Reduction in the assay filed under Mus musculus [3] was 26%; in the assay listed under Mus musculus [4], 59%; in the assay filed under Mus musculus [5] it was 37%; in the assay listed under Mus musculus [6] it was 61%.

With `Cc1nc(CCOc2ccc(CC3SC(=O)NC3=O)cc2)c(C)o1` (centres undefined), the ED25 in the assay listed under Mus musculus [1] stood at 2 mg/kg/day; in the assay listed under Mus musculus [2], 3 mg/kg/day. Also, the Reduction in the assay listed under Mus musculus [3] is 27%; in the assay filed under Mus musculus [4] it was 55%; in the assay listed under Mus musculus [5], 10%; in the assay filed under Mus musculus [6], 56%.

Take `O=C1NC(=O)C(Cc2ccc(OCc3coc(-c4ccccc4)n3)cc2)S1` (centres undefined): the figures for the ED25 in the assay filed under Mus musculus [1] and in the assay filed under Mus musculus [2] were 3 mg/kg/day and 4 mg/kg/day, respectively. Moreover, the Reduction in the assay listed under Mus musculus [3] amounted to 16%; in the assay filed under Mus musculus [4], 48%; in the assay filed under Mus musculus [5], 12%; in the assay filed under Mus musculus [6], 51%.

With `Cc1oc(-c2ccco2)nc1CCOc1ccc(CC2SC(=O)NC2=O)cc1` (centres undefined), the ED25 in [12] stood at 0.4 mg/kg/day; in the assay filed under Mus musculus [2], 0.9 mg/kg/day. For the same compound, the Reduction worked out at 50% in the assay filed under Mus musculus [3], 50% in the assay filed under Mus musculus [4], 41% in the assay listed under Mus musculus [5] and 69% in the assay listed under Mus musculus [6].
